The target in the experiment is HIV protease (Human immunodeficiency virus type 1 group M subtype B, UniProt P04585). Kind of experiment: Enzymatic (FRET fluorometric) assay for determining the inhibition constant (Ki) of compounds targeting the HIV protease. The experiment is classed as biochemical. The note with it: FRET substrate (EDANS/DABCYL), equation of Henderson; read-out: Ki. From the text: Enzymatic Assay for Determining the Inhibition Constant (Ki) of Synthetic Compounds Targeting the HIV Protease
This is a fluorometric assay based on the cleavage by protease of a substrate carrying a donor group (EDANS) and an acceptor group (DABCYL) on each side of the cleavage site, interacting together through fluorescence resonance energy transfer (FRET) as described by Matayoshi et al. (Science 247:[…], 1990).
After calculation of Vo and Vi, the inhibition constant (Ki) of the compound is determined using the equation of Henderson: [formula]
where Vo=the enzyme's initial velocity
Vi=the enzyme velocity in the presence of the inhibitory compound,
[I]=inhibitor concentration, [S]=substrate concentration,
Km=Michaelis-Menten constant and Kiapp=apparent Ki
Graphs are traced and the Ki determined using GraphPad Prism software v. 3.0.
With `Cc1ccc(S(=O)(=O)N(CC(C)C)[C@@H](CCCCNC(=O)NCc2ccccc2)C(=O)O)cc1` [Example 2, Nα-Isobutyl-Nα-(4-methylbenzenesulfonyl)-Nε-(benzylaminocarbonyl)-L-lysine], the Ki was determined as 0.032 µM.

`Cc1ccc(S(=O)(=O)N(CC(C)C)[C@@H](CCCCNC(=O)NCCc2c[nH]c3ccccc23)C(=O)O)cc1` [Example 6, Nα-Isobutyl-Nα-(4-methylbenzenesulfonyl)-Nε-[2′-(3-indolyl)ethylaminocarbonyl]-L-lysine]: the Ki worked out at 0.04 µM.

Take `Cc1ccc(S(=O)(=O)N(CC(C)C)[C@@H](CCCCNC(=S)NCCc2c[nH]c3ccccc23)C(=O)O)cc1` [Example 15]: the Ki stood at 0.111 µM.

Take `Cc1ccc(S(=O)(=O)N(CC(C)C)[C@@H](CCCCNC(=S)NCc2ccccc2)C(=O)O)cc1` [Example 16, Nα-Isobutyl-Nα-(4-methylbenzenesulfonyl)-Nε-benzylaminothiocarbonyl-L-lysine]: the Ki was determined as 0.152 µM.

For the compound `CC(C)CN([C@@H](CCCCNC(=O)NCc1ccccc1)C(=O)O)S(=O)(=O)c1ccc(N)cc1` [Example 18, Nα-(4-Aminobenzenesulfonyl)-Nα-isobutyl-Nε-benzylaminocarbonyl-L-lysine], the Ki worked out at 0.2 µM.

On to `Cc1ccc(S(=O)(=O)N(CC(C)C)[C@@H](CCCCNC(=O)NCCc2ccccc2)C(=O)O)cc1` [Example 21, Nα-Isobutyl-Nα-(4-methylbenzenesulfonyl)-Nε-(phenethylaminocarbonyl)-L-lysine], for which the Ki amounted to 0.167 µM.

On to `Cc1ccc(S(=O)(=O)N(CC(C)C)[C@@H](CCCCNC(=O)N[C@@H]2CCc3ccccc32)C(=O)O)cc1` [Example 24, (1S,1′R) Nα-Isobutyl-Nα-(4-methylbenzenesulfonyl)-Nε-(indanyl-1′-aminocarbonyl)-S-lysine], for which the inhibitory constant (Ki) amounted to 0.196 µM.

For the compound `Cc1ccc(S(=O)(=O)N(CC(C)C)[C@@H](CCCCNC(=NC#N)NCc2ccccc2)C(=O)O)cc1` [Example 28, Nα-Isobutyl-Nα-(4-methylbenzenesulfonyl)-Nε-(benzylaminocarbonyl-N-cyanoamidine)-L-lysine], the Ki was 0.063 µM.

Regarding `Cc1ccc(S(=O)(=O)N(CC(C)C)C(CCCCNC(=NC#N)NCCc2c[nH]c3ccccc23)C(=O)O)cc1` [Example 29, Nα-Isobutyl-Nα-(4-methylbenzenesulfonyl)-Nε-[2′-(3-indolyl)ethylaminocarbonyl-N-cyanoamidine]-L-lysine], the inhibition constant (Ki) was 0.0082 µM.

Consider `Cc1ccc(S(=O)(=O)N(CC(C)C)[C@@H](CCCCNC(=O)N(Cc2ccccc2)Cc2ccccc2)C(=O)O)cc1` [Example 32, Nα-Isobutyl-Nα-(4-methylbenzenesulfonyl)-Nε-(N′,N′-dibenzylaminocarbonyl)-L-lysine], for which the Ki amounted to 0.0072 µM.

Regarding `Cc1ccc(S(=O)(=O)N(CC(C)C)[C@H](CO)CCCCNC(=O)N(Cc2ccccc2)Cc2ccccc2)cc1` [Example 33, (2S) 2-N-Isobutyl-2-N-(4-methylbenzenesullonyl)-6-N-(N′,N′-dibenzylaminocarbonyl)-2,6-diaminohexanol], the Ki came out at 0.017 µM.

Turning to `Cc1ccc(S(=O)(=O)N(CC(C)C)[C@H](CO)CCCCNC(=S)N(Cc2ccccc2)Cc2ccccc2)cc1` [Example 34, (2S) 2-N-Isobutyl-2-N-(4-methylbenzenesulfonyl)-6-N-(N′,N′-dibenzylaminothiocarbonyl)-2,6-diaminohexanol], the inhibitory constant (Ki) was found to be 0.078 µM.

`CC(C)CN([C@@H](CCCCNC(=O)N(Cc1ccccc1)Cc1ccccc1)C(=O)O)S(=O)(=O)c1ccc(N)cc1` [Example 36, Nα-(4-Aminobenzenesulfonyl)-Nα-isobutyl-Nε-(N′,N′-dibenzylaminocarbonyl)-L-lysine]: the Ki is 0.0018 µM.

Turning to `Cc1ccc(S(=O)(=O)N(CC(C)C)[C@@H](CCCCNC(=S)N(Cc2ccccc2)Cc2ccccc2)C(=O)O)cc1` [Example 37, Nα-Isobutyl-Nα-(4-methylbenzenesulfonyl)-Nε-(N′,N′-dibenzylaminothiocarbonyl)-L-lysine], the Ki is 0.012 µM.

As to `Cc1ccc(S(=O)(=O)N(CC(C)C)[C@@H](CCCCNC(=O)N(Cc2ccccc2)Cc2ccncc2)C(=O)O)cc1` [Example 38, Nα-Isobutyl-Nα-(4-methylbenzenesulfonyl)-Nε-[N′-benzyl-N′-(4-picolyl)aminocarbonyl]-L-lysine], the Ki came out at 0.0037 µM.

Take `Cc1ccc(S(=O)(=O)N(CC(C)C)[C@@H](CCCCNC(=O)N(Cc2ccccc2)C(C)C)C(=O)O)cc1` [Example 39, Nα-Isobutyl-Nα-(4-methylbenzenesulfonyl)-Nε-[(N′-benzyl-N′-iso-propyl)aminocarbonyl]-L-lysine]: the inhibition constant (Ki) amounted to 0.019 µM.

As for `Cc1ccc(S(=O)(=O)N(CC(C)C)[C@@H](CCCCNC(=O)N(C)Cc2ccccc2)C(=O)O)cc1` [Example 40, Nα-Isobutyl-Nα-(4-methylbenzenesulfonyl)-Nε-[(N′-benzyl-N′-methyl)aminocarbonyl]-L-lysine], the Ki worked out at 0.055 µM.

In the case of `CC(C)CN([C@H](CO)CCCCNC(=O)N(Cc1ccccc1)Cc1ccccc1)S(=O)(=O)c1ccc(N)cc1` [Example 41, (2S) 2-N-(4-Aminobenzenesulfonyl)-2-N-isobutyl-6-N-(N′,N′-dibenzylaminocarbonyl)-2,6-diaminohexanol], the Ki stood at 0.012 µM.

Regarding `Cc1ccc(S(=O)(=O)N(CC(C)C)[C@@H](CCCCNC(=O)N(Cc2ccccc2)Cc2cccnc2)C(=O)O)cc1` [Example 42, Nα-Isobutyl-Nα-(4-methylbenzenesulfonyl)-Nε-[N′-benzyl-N′-(3-picolyl)aminocarbonyl]-L-lysine], the Ki came out at 0.0037 µM.

On to `COc1ccc(CN(Cc2ccncc2)C(=O)NCCCC[C@@H](C(=O)O)N(CC(C)C)S(=O)(=O)c2ccc(C)cc2)cc1` [Example 43, Nα-Isobutyl-Nα-(4-methylbenzenesulfonyl)-Nε-[N′-(4-methoxybenzyl)-N′-(4-picolyl)aminocarbonyl]-L-lysine], for which the Ki stood at 0.0079 µM.

As to `Cc1ccc(S(=O)(=O)N(CC(C)C)[C@@H](CCCCNC(=O)N(Cc2ccncc2)Cc2ccncc2)C(=O)O)cc1` [Example 44, Nα-Isobutyl-Nα-(4-methylbenzenesulfonyl)-Nε-[N′,N′-di-(4-picolyl)aminocarbonyl]-L-lysine], the Ki was 0.187 µM.

As for `COc1ccc(CN(Cc2ccncc2)C(=O)NCCCC[C@@H](CO)N(CC(C)C)S(=O)(=O)c2ccc(C)cc2)cc1` [Example 45, (2S) 2-N-Isobutyl-2-N-(4-methylbenzenesulfonyl)-6-N-[N′-(4-methoxybenzyl)-N′-(4-picolyl)aminocarbonyl]-2,6-diaminohexanol], the Ki was 0.054 µM.

As to `CC(C)CN([C@@H](CCCCNC(=O)N(Cc1ccccc1)Cc1cccnc1)C(=O)O)S(=O)(=O)c1ccc(N)cc1` [Example 47, Nα-(4-Aminobenzenesulfonyl)-Nα-isobutyl-Nε-[N′-benzyl-N′-(3-picolyl)aminocarbonyl]-L-lysine], the Ki was determined as 0.0024 µM.

In the case of `CC(C)CN([C@@H](CCCCNC(=O)N(Cc1ccccc1)Cc1ccncc1)C(=O)O)S(=O)(=O)c1ccc(N)cc1` [Example 48, Nα-(4-Aminobenzenesulfonyl)-Nα-isobutyl-Nε-[N′-benzyl-N′-(4-picolyl)aminocarbonyl]-L-lysine], the Ki is 0.012 µM.

Turning to `COc1ccc(CN(Cc2ccncc2)C(=O)NCCCC[C@@H](C(=O)O)N(CC(C)C)S(=O)(=O)c2ccc(N)cc2)cc1` [Example 49, Nα-(4-Aminobenzenesulfonyl)-Nα-isobutyl-Nε-[N′-(4-methoxybenzyl)-N′-(4-picolyl)aminocarbonyl]-L-lysine], the inhibitory constant (Ki) is 0.012 µM.

On to `CC(C)CN([C@H](CO)CCCCNC(=O)N(Cc1ccccc1)Cc1cccnc1)S(=O)(=O)c1ccc(N)cc1` [Example 50, (2S) 2-N-(4-Aminobenzenesulfonyl)-2-N-isobutyl-6-N-[N′-benzyl-N′-(3-picolyl)aminocarbonyl]-2,6-diaminohexanol], for which the Ki turned out to be 0.034 µM.

Turning to `CC(C)CN([C@H](CO)CCCCNC(=O)N(Cc1ccccc1)Cc1ccncc1)S(=O)(=O)c1ccc(N)cc1` [Example 52, (2S) 2-N-(4-Aminobenzenesulfonyl)-2-N-isobutyl-6-N-[N′-benzyl-N′-(4-picolyl)aminocarbonyl]-2,6-diaminohexanol], the Ki stood at 0.09 µM.

Regarding `COc1ccc(CN(Cc2ccncc2)C(=O)NCCCC[C@@H](CO)N(CC(C)C)S(=O)(=O)c2ccc(N)cc2)cc1` [Example 53, (2S) 2-N-(4-Aminobenzenesulfonyl)-2-N-isobutyl-6-N-[N′-(4-methoxybenzyl)-N′-(4-picolyl)aminocarbonyl]-2,6-diaminohexanol], the Ki worked out at 0.09 µM.

For `Cc1ccc(S(=O)(=O)N(CC(C)C)[C@@H](CCCCNC(=O)N(Cc2ccccc2)Cc2ccccc2[N+](=O)[O-])C(=O)O)cc1` [Example 54, Nα-Isobutyl-Nα-(4-methylbenzenesulfonyl)-Nε-[N′-benzyl-N′-(2-nitrobenzyl)aminocarbonyl]-L-lysine], the Ki was 0.0009 µM.

Turning to `Cc1ccc(S(=O)(=O)N(CC(C)C)[C@@H](CCCCNC(=O)N(Cc2ccccc2)Cc2cccc([N+](=O)[O-])c2)C(=O)O)cc1` [Example 55, Nα-Isobutyl-Nα-(4-methylbenzenesulfonyl)-Nε-[N′-benzyl-N′-(3-nitrobenzyl)aminocarbonyl]-L-lysine], the Ki worked out at 0.0011 µM.

Consider `Cc1ccc(S(=O)(=O)N(CC(C)C)[C@@H](CCCCNC(=O)N(Cc2ccccc2)Cc2ccc([N+](=O)[O-])cc2)C(=O)O)cc1` [Example 56, Nα-Isobutyl-Nα-(4-methylbenzenesulfonyl)-Nε-[N′-benzyl-N′-(4-nitrobenzyl)aminocarbonyl]-L-lysine], for which the Ki stood at 0.0015 µM.

(Values after US6528532B1, “Urea derivatives as HIV aspartyl protease inhibitors” (Pharmacor Inc., priority 2002, dated 2003).)
